According to the NIST ThermoML archive (doi:10.1021/je700037z):
± gives the expanded uncertainty stated by the source.

Settings: 101.33 kPa, Liquid, Pycnometric method

CCn1cc[n+](C)c1.F[B-](F)(F)F [1-ethyl-3-methylimidazolium tetrafluoroborate]
mass density (285 K): 1290 ± 7 kg/m3 | mass density (290 K): 1286 ± 7 kg/m3 | mass density (295 K): 1282 ± 7 kg/m3 | mass density (300 K): 1279 ± 7 kg/m3 | mass density (305 K): 1275 ± 7 kg/m3
